Read-outs that look alike come from different tables or passages of the source.
Columns and labels:
[1] = target: GST-tagged KRAS-G12D (2-169) (Homo sapiens, UniProt P01116, G12D); experiment: Nucleotide exchange assay (NEA), SOS-mediated, HTRF, KRAS G12D; assay type: biochemical; settings: IC50 extracted at 30 min, 20 nM SOScat
Description: (§1) This activity is tightly regulated by GTPase activating proteins (GAPs) and guanine nucleotide exchange factors (GEFs). GEFs, such as SOS1/2, activate Ras proteins by exchanging GDP for GTP, thus returning Ras to its active conformation (Simanshu, Nissley, & McCormick, 2017). […] Homogenous time resolved fluorescence (HTRF) was used to detect SOS-mediated binding of a fluorescent GTP analog, GTP-DY-647P1 (Jena Biosciences NU-820-647P1) to GST-tagged KRAS-G12D (2-169) or to GST-tagged KRAS-G12V (2-169, Reaction Biology, MSC-11-540).
(§2) GST-tagged KRAS-G12D (2-169) and anti-GST MAb Tb Cryptate Gold (CisBio 61GSTTLB) were diluted into assay buffer (20 mM HEPES, pH 7.3, 150 mM NaCl, 5 mM MgCl2, 0.05% BSA 0.0025% NP40, 1 mM DTT) to prepare a 2.5× donor solution. 5× compound was added to the protein mixture and incubated for 1 h at RT. 2.5× acceptor solution containing SOS1cat (564-1049, Reaction Biology MSC-11-502) and GTP-DY-647P1 were then added to the donor KRAS mixture such that the final concentration of the reaction contained 0.25 nM GST-tagged KRAS-G12D (2-169), 20 nM SOScat, and 150 nM GTP-DY-647P1. The reaction was monitored using at RT with the Envision multimode plate reader (Ex/Em 337/665, […]) up to 90 minutes at 5 minute intervals. To monitor KRAS-G12V SOS-mediated nucleotide exchange, 80 nM SOS was added to reaction instead of 20 nM. All other components were the same as previously described. Data was blanked to reactions without SOS1 and % inhibition was calculated such that DMSO only =0% and blank=100%. Curve fitting was done using a 4 parameter fit. Reported IC50 values were extracted at 30 min and 90 min for the KRAS-G12D and KRAS-G12V assays, respectively.
NEA KRAS G12D IC50 (uM) values of selected compounds are depicted in Table 2 with compounds having a value <0.01 uM as ++++; ≥0.01 uM to 0.1 uM as +++; ≥0.1 uM to 1 uM as ++; ≥1 uM to 20 uM as +; and ≥20 uM as NA.

[2] = target: GST-tagged KRAS-G12V (2-169) (Homo sapiens, UniProt P01116, G12V); experiment: Nucleotide exchange assay (NEA), SOS-mediated, HTRF, KRAS G12V; assay type: biochemical; settings: Table 4; IC50 extracted at 90 min; 80 nM SOS
Description: as §1, §2

[3] = Table 4, read-out: NEA G12D IC50

GST-tagged KRAS-G12V (2-169), sequence (P01116 2-169 isoform P01116-2 G12V): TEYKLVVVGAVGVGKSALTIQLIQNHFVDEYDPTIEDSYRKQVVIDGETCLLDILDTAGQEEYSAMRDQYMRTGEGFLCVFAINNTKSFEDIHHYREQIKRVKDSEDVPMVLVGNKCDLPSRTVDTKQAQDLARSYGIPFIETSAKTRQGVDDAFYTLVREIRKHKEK
GST-tagged KRAS-G12D (2-169), sequence (P01116 2-169 isoform P01116-2 G12D): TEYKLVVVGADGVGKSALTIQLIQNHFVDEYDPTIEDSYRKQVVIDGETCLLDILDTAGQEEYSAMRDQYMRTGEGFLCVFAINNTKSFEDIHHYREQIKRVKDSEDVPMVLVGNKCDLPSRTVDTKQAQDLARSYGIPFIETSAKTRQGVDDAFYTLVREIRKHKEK

Row | Structure (SMILES) | IC50 [1, 3] | IC50 [2] | IC50 ([1]; Table 2, read-out: NEA-G12D (uM) IC50)
1 | N#Cc1c(N)sc2c1C1(CC2)CN(c2nc(OC[C@@]34CCCN3C[C@H](F)C4)nc(OC3CCOC3)n2)C1 (stereo partly drawn) [Compound 78, 2-amino-1′-[4-[[(2R,8S)-2-fluoro-1,2,3,5,6,7-hexahydropyrrolizin-8-yl]methoxy]-6-tetrahydrofuran-3-yloxy-1,3,5-triazin-2-yl]spiro[5,6-dihydrocyclopenta[b]thiophene-4,3′-azetidine]-3-carbonitrile; formic acid] | 1 to 20 µM | 0.1 to 1 µM | –
2 | CCN(c1nc(OC[C@@]23CCCN2C[C@H](F)C3)nc(N2CC3(C2)SCc2sc(N)c(C#N)c23)n1)C1(C(N)=O)CC1 [Compound 234, 1-[[4-(2-amino-3-cyano-spiro[6H-thieno[3,4-b]thiophene-4,3′-azetidine]-1′-yl)-6-[[(2R,8S)-2-fluoro-1,2,3,5,6,7-hexahydropyrrolizin-8-yl]methoxy]-1,3,5-triazin-2-yl]-ethyl-amino]cyclopropanecarboxamide] | 0.1 to 1 µM | 0.01 to 0.1 µM | –
3 | CO/N=C(\C(C)=O)C(=O)N1[C@@H]2CC[C@H]1CN(c1nc(OC[C@@]34CCCN3C[C@H](F)C4)nc(N3CC4(C3)SCc3sc(N)c(C#N)c34)n1)C2 [Compound 161, 2-amino-1′-[4-[[(2R,8S)-2-fluoro-1,2,3,5,6,7-hexahydropyrrolizin-8-yl]methoxy]-6-[(1R,5S)-8-[(2Z)-2-methoxyimino-3-oxo-butanoyl]-3,8-diazabicyclo[3.2.1]octan-3-yl]-1,3,5-triazin-2-yl]spiro[6H-thieno[3,4-b]thiophene-4,3′-azetidine]-3-carbonitrile] | 1 to 20 µM | 0.1 to 1 µM | –
4 | CCN(c1nc(OCC2(CN(C)C)CC2(F)F)nc(N2CC3(C2)SCc2sc(N)c(C#N)c23)n1)[C@H](C)c1cccnc1N (stereo partly drawn) [Compound 198, 2-amino-1′-[4-[[(1R)-1-(2-amino-3-pyridyl)ethyl]-ethyl-amino]-6-[[1-[(dimethylamino)methyl]-2,2-difluoro-cyclopropyl]methoxy]-1,3,5-triazin-2-yl]spiro[6H-thieno[3,4-b]thiophene-4,3′-azetidine]-3-carbonitrile] | < 0.01 µM | < 0.01 µM | –
5 | N#Cc1c(N)sc2c1C1(CCC2)CN(c2nc(OCC3(C#N)CC3)nc(OC[C@@]34CCCN3C[C@H](F)C4)n2)C1 [Compound 54, 2-amino-1′-[4-[(1-cyanocyclopropyl)methoxy]-6-[[(2R,8S)-2-fluoro-1,2,3,5,6,7-hexahydropyrrolizin-8-yl]methoxy]-1,3,5-triazin-2-yl]spiro[6,7-dihydro-5H-benzothiophene-4,3′-azetidine]-3-carbonitrile] | 0.1 to 1 µM | 0.01 to 0.1 µM | –
6 | CN(Cc1cnsc1)c1nc(OC[C@@]23CCCN2C[C@H](F)C3)nc(N2CC3(CCc4sc(N)c(C#N)c43)C2)n1 [Compound 147, 2-amino-1′-[4-[[(2R,8S)-2-fluoro-1,2,3,5,6,7-hexahydropyrrolizin-8-yl]methoxy]-6-[isothiazol-4-ylmethyl(methyl)amino]-1,3,5-triazin-2-yl]spiro[5,6-dihydrocyclopenta[b]thiophene-4,3′-azetidine]-3-carbonitrile] | 0.1 to 1 µM | 0.01 to 0.1 µM | –
7 | N#Cc1c(N)sc2c1C1(CC2)CN(c2nc(OC[C@@]34CCCN3C[C@H](F)C4)nc(N3CCC[C@@H](O)C3)n2)C1 [Compound 23, 2-amino-1′-[4-[[(2R,8S)-2-fluoro-1,2,3,5,6,7-hexahydropyrrolizin-8-yl]methoxy]-6-[(3R)-3-hydroxy-1-piperidyl]-1,3,5-triazin-2-yl]spiro[5,6-dihydrocyclopenta[b]thiophene-4,3′-azetidine]-3-carbonitrile] | 0.1 to 1 µM | 0.1 to 1 µM | –
8 | CC(c1nccnc1N)N(C)c1nc(OC[C@@]23CCCN2C[C@H](F)C3)nc(N2CC3(CCc4sc(N)c(C#N)c43)C2)n1 (single isomer, unassigned) [Compound 116B, 2-amino-1′-[4-[[(1*)-1-(3-aminopyrazin-2-yl)ethyl]-methyl-amino]-6-[[(2R,8S)-2-fluoro-1,2,3,5,6,7-hexahydropyrrolizin-8-yl]methoxy]-1,3,5-triazin-2-yl]spiro[5,6-dihydrocyclopenta[b]thiophene-4,3′-azetidine]-3-carbonitrile] | 0.1 to 1 µM | 0.01 to 0.1 µM | –
9 | CC(c1nsnc1N)N(C)c1nc(OC[C@@]23CCCN2C[C@H](F)C3)nc(N2CC3(C2)SCc2sc(N)c(C#N)c23)n1 (single isomer, unassigned) [Compound 184B, 2-amino-1′-[4-[[(1*)-1-(4-amino-1,2,5-thiadiazol-3-yl)ethyl]-methyl-amino]-6-[[(2R,8S)-2-fluoro-1,2,3,5,6,7-hexahydropyrrolizin-8-yl]methoxy]-1,3,5-triazin-2-yl]spiro[6H-thieno[2,3-c]thiophene-4,3′-azetidine]-3-carbonitrile] | 0.1 to 1 µM | 0.01 to 0.1 µM | –
10 | CC(=O)CC(=O)N1[C@@H]2CC[C@H]1CN(c1nc(OC[C@@]34CCCN3C[C@H](F)C4)nc(N3CC4(C3)SCc3sc(N)c(C#N)c34)n1)C2 [Compound 145, 2-amino-1′-[4-[[(2R,8S)-2-fluoro-1,2,3,5,6,7-hexahydropyrrolizin-8-yl]methoxy]-6-[(1R,5S)-8-(3-oxobutanoyl)-3,8-diazabicyclo[3.2.1]octan-3-yl]-1,3,5-triazin-2-yl]spiro[6H-thieno[3,4-b]thiophene-4,3′-azetidine]-3-carbonitrile] | 1 to 20 µM | 0.1 to 1 µM | –
11 | N#Cc1c(N)sc2c1C1(CN(c3nc(OCC45CCCN4CC(F)C5)nc(N4C5CCC4C(O)C5)n3)C1)SC2 (mixture of isomers) [Compound 282, 2-amino-1′-[4-[[(2R,8S)-2-fluoro-1,2,3,5,6,7-hexahydropyrrolizin-8-yl]methoxy]-6-[(1RS,2SR,4SR)-2-hydroxy-7-azabicyclo[2.2.1]heptan-7-yl]-1,3,5-triazin-2-yl]spiro[6H-thieno[3,4-b]thiophene-4,3′-azetidine]-3-carbonitrile] | 0.1 to 1 µM | 0.01 to 0.1 µM | –
12 | CC(c1ccn(C)n1)N(C)c1nc(OC[C@@]23CCCN2C[C@H](F)C3)nc(N2CC3(CCc4sc(N)c(C#N)c43)C2)n1 (stereo partly drawn) [Compound 119, 2-amino-1′-[4-[[(2R,8S)-2-fluoro-1,2,3,5,6,7-hexahydropyrrolizin-8-yl]methoxy]-6-[methyl-[1-(1-methylpyrazol-3-yl)ethyl]amino]-1,3,5-triazin-2-yl]spiro[5,6-dihydrocyclopenta[b]thiophene-4,3′-azetidine]-3-carbonitrile] | 1 to 20 µM | 1 to 20 µM | –
13 | CN(CC1(C#N)CC1)c1nc(OC[C@@]23CCCN2C[C@H](F)C3)nc(N2CCC3(CCc4sc(N)c(C#N)c43)C2)n1 (stereo partly drawn) [Compound 14, 2-amino-1′-[4-[(1-cyanocyclopropyl)methyl-methyl-amino]-6-[[(2R,8S)-2-fluoro-1,2,3,5,6,7-hexahydropyrrolizin-8-yl]methoxy]-1,3,5-triazin-2-yl]spiro[5,6-dihydrocyclopenta[b]thiophene-4,3′-pyrrolidine]-3-carbonitrile] | 1 to 20 µM | 1 to 20 µM | 1 to 20 µM
14 | C[C@@]1(O)CCCN(c2nc(OC[C@@]34CCCN3C[C@H](F)C4)nc(N3CC4(C3)c3c(sc(N)c3C#N)CS4(=O)=O)n2)C1 (racemic) [Compound 113, 2-amino-5,5-dioxo-1′-[4-[[rac-(2R,8S)-2-fluoro-1,2,3,5,6,7-hexahydropyrrolizin-8-yl]methoxy]-6-[rac-(3R)-3-hydroxy-3-methyl-1-piperidyl]-1,3,5-triazin-2-yl]spiro[6H-thieno[3,4-b]thiophene-4,3′-azetidine]-3-carbonitrile] | 0.1 to 1 µM | 0.1 to 1 µM | –
15 | N#Cc1c(N)sc2c1C1(CC2)CN(c2nc(OC[C@@]34CCCN3C[C@H](F)C4)nc(N(CCO)Cc3c(F)ccnc3N)n2)C1 [Compound 154, 2-amino-1′-[4-[(2-amino-4-fluoro-3-pyridyl)methyl-(2-hydroxyethyl)amino]-6-[[(2R,8S)-2-fluoro-1,2,3,5,6,7-hexahydropyrrolizin-8-yl]methoxy]-1,3,5-triazin-2-yl]spiro[5,6-dihydrocyclopenta[b]thiophene-4,3′-azetidine]-3-carbonitrile] | 0.01 to 0.1 µM | < 0.01 µM | –

From US12421254B2, “KRAS modulators and uses thereof” (Quanta Therapeutics, Inc., priority 2023, dated 2025)
